According to PubChem BioAssay (NCI):
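In this assay, cells in 96-well plates receive the compound at five concentrations for 48 hours. Endpoints are linearly interpolated between the surrounding concentrations. GI50: concentration for 50% inhibition of growth. TGI is the concentration that stops growth completely.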 *1 amine or outer side, *2 acyl side, *3 side chain or, on linkers, in order; H or OH if unused. Where a SMILES comes first, the peptide text is derived from it. Bridges are numbered along the chain shown (N, C = ends). [ ]: non-standard residue; d: D form. The star is where a group is joined. X19 = O=C([C@H](N[*:1])c1ccc(O[C@H]2O[C@@H](CO)[C@@H](O)[C@@H](O)[C@H]2O[C@@H]2O[C@H](CO)[C@H](O)[C@H](O)[C@@H]2O)cc1)[*:2]; X18 = NC(=O)[C@@H](O[*:3])[C@H](N[*:1])C(=O)[*:2]; X20 = O=C([C@H](N[*:1])c1ccc(O)c(Cl)c1)[*:2]; d(aThr) = C[C@@H](O)[C@@H](N)C(=O)O; dHpg = N[C@@H](C(=O)O)c1ccc(O)cc1; X17 = CC(C)C/C=C/C=C/C(=O)*; dOrn = NCCC[C@@H](N)C(=O)O

Assays:
Assay in all cases: NCI-60 cell line screen, 48 h
[1] = system: CCRF-CEM leukemia
[2] = system: COLO 205 colon
[3] = system: DU-145 prostate
[4] = system: HOP-92 NSCLC
[5] = system: MOLT-4 leukemia
[6] = system: OVCAR-5 ovarian
[7] = system: SF-295 CNS
[8] = system: SN12C renal
[9] = system: TK-10 renal
[10] = system: UACC-257 melanoma

SMILES	GI50 [1] [µM]	TGI [1] [µM]	GI50 [2] [µM]	TGI [2] [µM]	GI50 [3] [µM]	TGI [3] [µM]	GI50 [4] [µM]	TGI [4] [µM]	GI50 [5] [µM]	TGI [5] [µM]	GI50 [6] [µM]	TGI [6] [µM]	GI50 [7] [µM]	TGI [7] [µM]	GI50 [8] [µM]	TGI [8] [µM]	GI50 [9] [µM]	TGI [9] [µM]	GI50 [10] [µM]	TGI [10] [µM]
O=C1/C(=C/c2ccccc2)CN(CCC(=O)N2C/C(=C\c3ccccc3)C(=O)/C(=C/c3ccccc3)C2)C/C1=C\c1ccccc1	0.687	> 100	12.4	> 67.5	21.1	73.9	10.4	29.7	2.6	> 100	33.1	> 91.3	14.2	30	17.3	> 95.9	18.3	43.9	24.6	> 100
N#C/C(=C/C=C/c1ccccc1)S(=O)c1ccccc1 (configuration not stated)	0.341	1.59	0.482	2.07	0.316	1.2	0.319	1.03	0.338	3.64	0.3	1.07	1.44	3.14	0.373	1.63	0.501	1.85	0.845	2.41
NC1=NC(c2ccccc2)CC(c2cc(Cl)cc(Br)c2O)=N1 (configuration not stated)	–	35.6	–	25.6	–	–	–	38.2	–	11.6	–	34.4	–	23.7	–	30.3	–	37.3	–	36.2
COc1cc2ccc(/C(C)=N/OC(C)=O)cc2cc1OC	–	> 100	–	> 100	–	–	–	> 100	–	> 100	–	> 100	–	> 100	–	> 100	–	> 100	–	> 100
CCCC1C(=O)C(CC)Cc2c(OC)ccc(OC)c21 (configuration not stated)	–	> 100	–	> 100	–	–	–	> 100	–	> 100	–	> 100	–	> 100	–	> 100	–	> 100	–	> 100
C[C@]12CC(C#N)C(=O)C(O)=C1CC[C@@H]1C2CC[C@@]2(C)C1CC[C@@H]2O (some centres not stated)	–	> 100	–	> 100	–	–	–	76.4	–	> 100	–	> 100	–	> 100	–	> 100	–	> 100	–	> 100
C#Cc1cccc(Nc2ncnc3ccc(-c4cnc(Cl)c(NS(C)(=O)=O)c4)cc23)c1	0.236	28.8	0.648	2.12	0.434	6.99	0.078	0.835	0.244	1.53	0.329	2.73	0.376	2.17	0.292	> 54	–	–	0.307	6.57
CC1(C)CCC2(C(=O)O)CC[C@]3(C)C(=CCC4C5(C)CC[C@H](OC6OC(C(=O)O)C(O)C(OC7OC(CO)C(O)C(O)C7O)C6OC6OC(CO)C(O)C(O)C6O)C(C)(C)C5CCC43C)C2C1 (some centres not stated)	> 100	> 100	> 100	> 100	–	–	> 100	> 100	86.3	> 100	> 100	> 100	31.1	> 100	84	> 100	> 100	> 100	> 100	> 100
COc1ccc(-c2csc(NC(=O)N3CCN(c4cc5c(cc4F)c(=O)c(C(=O)O)cn5C4CC4)CC3)n2)cc1	1.43	13.1	–	–	1.72	> 100	1.6	6.56	2.54	9.42	–	–	2.25	8.79	1.49	> 100	6.93	37	–	–
O=C(c1cc2c(C(F)(F)F)onc2c2ccccc12)C(F)(F)F	–	21.6	–	9.11	–	–	–	4.99	–	> 56	–	> 100	–	> 29.3	–	7.85	–	42.2	–	47.5
CC(C)C/C=C/C=C/C(=O)N[C@@H](CC(N)=O)C(=O)N[C@@H]1C(=O)N[C@H](c2ccc(O)cc2)C(=O)N[C@H](CCCN)C(=O)N[C@H]([C@@H](C)O)C(=O)N[C@H](c2ccc(O)cc2)C(=O)N[C@H](c2ccc(O)cc2)C(=O)N[C@H]([C@H](C)O)C(=O)N[C@H](Cc2ccccc2)C(=O)N[C@H](CCCN)C(=O)N[C@H](c2ccc(O[C@H]3O[C@@H](CO)[C@@H](O)[C@@H](O)[C@H]3O[C@@H]3O[C@H](CO)[C@H](O)[C@H](O)[C@@H]3O)cc2)C(=O)N[C@H]([C@H](C)O)C(=O)N[C@H](c2ccc(O)cc2)C(=O)NCC(=O)N[C@H](CC(C)C)C(=O)N[C@H](C)C(=O)N[C@H](c2ccc(O)c(Cl)c2)C(=O)O[C@@H]1C(N)=O (X17-N[X18][dHpg][dOrn][d(aThr)][dHpg][dHpg][dT][dF][dOrn][X19][dT][dHpg]G[dL][dA][X20]; ester 2-C)	–	–	37.8	> 100	37.4	> 100	80	> 100	31.7	> 100	27	63.5	15.8	46.1	> 100	> 100	38.7	91.1	21.9	47.4
CCN(CC)CCOC(=O)/C(=C/c1ccc(OC)cc1)c1cc(OC)c(OC)c(OC)c1	–	> 100	–	18.9	–	–	–	54.1	–	> 100	–	43.7	–	6.3	–	57.5	–	> 100	–	19.3
COc1cc([C@@H]2c3cc4c(cc3[C@@H](NCc3ccc(C#N)cc3)C3COC(=O)[C@@H]32)OCO4)cc(OC)c1O (some centres not stated)	–	7.01	–	6.32	–	–	–	49.4	–	1.38	–	8.71	–	> 100	–	3.02	–	3.76	–	33.9
CC1=C2C(=O)C(C)(C)C=C2C(=O)[C@](C)(O)C12CC2	–	> 1	–	> 1	–	–	–	> 1	–	> 1	–	> 1	–	> 1	–	> 1	–	> 1	–	> 1
C[C@@H](NC1CCC[C@@H]1O)c1ccccc1 (some centres not stated)	–	> 100	–	> 100	–	–	–	> 100	–	> 100	–	> 100	–	> 100	–	> 100	–	> 100	–	> 100
O=C1c2cccc3cc([N+](=O)[O-])cc(c23)C(=O)N1CCN1CCCC1	0.343	7.02	0.648	2.92	0.286	1.24	0.355	2.79	0.237	> 100	1.78	> 19.7	0.227	0.734	0.228	1.11	0.697	2.52	–	–
